Measured values from paper PMC13186263 (The Journal of organic chemistry, 2020).

Columns and labels:
PKCα = PKCα (Homo sapiens, UniProt P17252); assay: biochemical; assay type: binding
PKCβI = PKCβI (Homo sapiens, UniProt P05771); assay: PKC binding assay, competition with 3H-PDBu
PKCδ = PKCδ (Homo sapiens, UniProt Q05655); assay: PKC binding assay, competition with 3H-PDBu
PKCε = biological target: T1, PKCε (Homo sapiens, UniProt Q02156); assay: PKC binding assay, competition with 3H-PDBu
T1 sequence (Q02156 1-737): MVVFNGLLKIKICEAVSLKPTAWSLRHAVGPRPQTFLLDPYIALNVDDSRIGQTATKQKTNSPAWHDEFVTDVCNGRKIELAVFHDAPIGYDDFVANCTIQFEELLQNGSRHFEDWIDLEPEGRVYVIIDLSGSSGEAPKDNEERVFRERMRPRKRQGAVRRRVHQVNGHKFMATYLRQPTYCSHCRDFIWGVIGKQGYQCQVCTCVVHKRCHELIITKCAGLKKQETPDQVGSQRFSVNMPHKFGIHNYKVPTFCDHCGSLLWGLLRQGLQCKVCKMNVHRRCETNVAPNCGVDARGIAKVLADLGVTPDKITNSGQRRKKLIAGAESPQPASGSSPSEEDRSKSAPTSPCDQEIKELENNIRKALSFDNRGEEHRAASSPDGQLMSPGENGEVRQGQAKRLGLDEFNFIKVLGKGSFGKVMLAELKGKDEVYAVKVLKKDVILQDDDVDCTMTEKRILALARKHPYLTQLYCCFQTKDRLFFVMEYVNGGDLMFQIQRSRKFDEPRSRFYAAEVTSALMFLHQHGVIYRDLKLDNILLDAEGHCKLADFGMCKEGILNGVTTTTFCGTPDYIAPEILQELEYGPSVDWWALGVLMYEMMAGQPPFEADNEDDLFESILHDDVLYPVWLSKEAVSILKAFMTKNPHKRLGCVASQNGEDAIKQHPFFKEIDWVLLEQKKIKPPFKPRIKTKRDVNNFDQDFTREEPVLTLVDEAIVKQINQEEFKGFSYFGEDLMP

PKCθ = PKCθ (Homo sapiens, UniProt Q04759); assay: PKC binding assay, competition with 3H-PDBu
PKCθ, sequence (Q04759 whole entry, canonical isoform): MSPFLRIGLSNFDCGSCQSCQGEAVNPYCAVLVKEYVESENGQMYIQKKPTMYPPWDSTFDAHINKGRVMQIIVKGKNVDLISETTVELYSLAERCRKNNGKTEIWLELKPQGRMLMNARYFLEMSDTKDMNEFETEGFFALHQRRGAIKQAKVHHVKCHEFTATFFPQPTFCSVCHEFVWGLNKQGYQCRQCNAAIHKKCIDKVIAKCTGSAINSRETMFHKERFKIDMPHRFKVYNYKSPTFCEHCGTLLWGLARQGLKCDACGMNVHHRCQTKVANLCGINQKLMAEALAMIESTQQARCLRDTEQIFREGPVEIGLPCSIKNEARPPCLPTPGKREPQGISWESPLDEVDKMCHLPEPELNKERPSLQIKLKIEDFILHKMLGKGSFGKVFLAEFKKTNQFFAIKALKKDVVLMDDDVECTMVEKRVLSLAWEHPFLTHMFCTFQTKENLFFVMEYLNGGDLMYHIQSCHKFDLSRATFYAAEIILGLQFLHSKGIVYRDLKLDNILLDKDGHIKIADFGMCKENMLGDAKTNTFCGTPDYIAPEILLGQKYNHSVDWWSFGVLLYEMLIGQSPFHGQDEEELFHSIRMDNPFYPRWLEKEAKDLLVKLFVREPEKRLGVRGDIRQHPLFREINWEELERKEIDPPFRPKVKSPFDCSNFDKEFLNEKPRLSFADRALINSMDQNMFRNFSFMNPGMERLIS

PKC isoforms = assay: Cell-free competitive PKC binding, statements across isoforms; set-up: species or system human; details: five PKC isoforms

PKCδ, sequence (Q05655 whole entry): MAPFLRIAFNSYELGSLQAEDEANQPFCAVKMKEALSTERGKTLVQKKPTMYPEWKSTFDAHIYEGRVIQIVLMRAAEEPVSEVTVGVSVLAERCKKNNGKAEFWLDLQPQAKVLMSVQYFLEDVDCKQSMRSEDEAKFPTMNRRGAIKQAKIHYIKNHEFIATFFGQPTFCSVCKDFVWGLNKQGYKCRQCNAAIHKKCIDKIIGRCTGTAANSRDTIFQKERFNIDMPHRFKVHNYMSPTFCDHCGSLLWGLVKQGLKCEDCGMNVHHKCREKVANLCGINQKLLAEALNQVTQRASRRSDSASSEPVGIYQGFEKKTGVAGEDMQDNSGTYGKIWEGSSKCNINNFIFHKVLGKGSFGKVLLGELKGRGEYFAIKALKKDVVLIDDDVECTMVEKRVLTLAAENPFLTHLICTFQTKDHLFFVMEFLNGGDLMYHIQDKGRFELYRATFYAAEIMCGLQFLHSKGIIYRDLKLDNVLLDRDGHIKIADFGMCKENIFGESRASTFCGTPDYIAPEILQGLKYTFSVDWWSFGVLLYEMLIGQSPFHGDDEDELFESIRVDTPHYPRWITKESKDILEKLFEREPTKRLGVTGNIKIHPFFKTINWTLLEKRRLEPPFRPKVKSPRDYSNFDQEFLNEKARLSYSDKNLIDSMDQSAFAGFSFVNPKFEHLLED
PKCβI, sequence (P05771 whole entry): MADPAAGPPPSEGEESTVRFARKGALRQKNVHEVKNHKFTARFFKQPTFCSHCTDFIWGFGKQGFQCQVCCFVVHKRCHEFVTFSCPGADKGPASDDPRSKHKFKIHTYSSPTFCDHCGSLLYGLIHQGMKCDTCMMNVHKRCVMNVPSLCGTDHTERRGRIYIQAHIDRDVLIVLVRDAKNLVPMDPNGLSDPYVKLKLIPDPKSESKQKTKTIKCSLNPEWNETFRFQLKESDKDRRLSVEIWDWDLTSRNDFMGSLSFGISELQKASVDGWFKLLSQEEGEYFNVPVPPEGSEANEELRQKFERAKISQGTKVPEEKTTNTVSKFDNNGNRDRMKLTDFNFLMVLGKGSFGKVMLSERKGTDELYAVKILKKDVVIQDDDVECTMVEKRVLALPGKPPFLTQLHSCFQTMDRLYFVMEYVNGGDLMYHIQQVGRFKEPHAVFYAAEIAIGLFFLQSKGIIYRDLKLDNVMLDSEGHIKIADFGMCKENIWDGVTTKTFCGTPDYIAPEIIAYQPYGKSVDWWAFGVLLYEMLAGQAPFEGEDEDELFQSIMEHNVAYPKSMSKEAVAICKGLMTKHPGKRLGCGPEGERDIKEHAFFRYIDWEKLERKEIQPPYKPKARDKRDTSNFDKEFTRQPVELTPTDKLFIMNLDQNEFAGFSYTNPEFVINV

SMILES | Ki (PKCα) [nM] | Ki (PKCβI) [nM] | Ki (PKCδ) [nM] | Ki (PKCε) [nM] | Ki (PKCθ) [nM] | PKC binding affinities (PKC isoforms)
CCCCCCCC(=O)O[C@H]1/C(=C/C(=O)OC)C[C@H]2C[C@H](CO)OC(=O)CCCC(=O)OCC(C)(C)[C@]1(O)O2 [7a, (1S,3R,13S,14S,E)-13-Hydroxy-3-(hydroxymethyl)-15-(2-methoxy-2-oxoethylidene)-12,12-dimethyl-5,9-dioxo-4,10,17-trioxabicyclo[11.3.1]heptadecan-14-yl Octanoate] | 4.4 | 4 | 1.7 | 2.7 | 1.5 | comparable to bryostatin
CCCCCCCC(=O)O[C@H]1/C(=C/C(=O)OC)C[C@H]2C[C@H]([C@@H](C)O)OC(=O)CCCC(=O)OCC(C)(C)[C@]1(O)O2 [7b, (1S,3R,13S,14S,E)-13-Hydroxy-3-((R)-1-hydroxyethyl)-15-(2-methoxy-2-oxoethylidene)-12,12-dimethyl-5,9-dioxo-4,10,17-trioxabicyclo[11.3.1]heptadecan-14-yl Octanoate] |  |  |  |  |  | strongly attenuated binding affinity relative to the des-methyl compound 7a
CCC/C=C/C=C/C(=O)O[C@H]1/C(=C/C(=O)OC)C[C@H]2C[C@H]([C@@H](C)O)OC(=O)C[C@H](O)C[C@@H]3C[C@H](OC(C)=O)C(C)(C)[C@](O)(C[C@@H]4C/C(=C/C(=O)OC)C[C@H](/C=C/C(C)(C)[C@]1(O)O2)O4)O3 [bryostatin 1, Bryostatin 1, reference compound] |  |  |  | 3 | 1.5 | 
